Measured values taken from US11931332B2, “Phenyl alkyl carbamate compounds for use in preventing or treating neurodegenerative disease” (priority 2020, dated 2024).

Columns and labels:
[1] = system: GFAP-positive astrocytes; experiment: GFAP immunohistochemistry, activation level of astrocytes in striatum of rotenone mice; format: in vivo, C57BL/6 mice; details: rotenone 30 mg/kg orally, Example 124 40 mg/kg IP once a day for 35 days, FIG. 6
Experimental: (§1) Mice were randomly divided into four groups: • Group 1: vehicle control mice, • Group 2: Compound of Example 124—treated mice, • Group 3: rotenone treated mice, • Group 4: Compound of Example 124—rotenone treated mice.
(§2) Rotenone was suspended in 0.5% Carboxymethyl cellulose (CMC) sodium salt. Compound of Example 124 were dissolved in Tween 80. 0.5% CMC and Rotenone (30 mg/kg) were administered orally, the compound of Example 124 (40 mg/kg) was injected intraperitoneally (IP) once a day for 35 days (5 weeks).
(§3) Specifically, mice of Biological Experiment Example 1 were anesthetized with sevoflurane and perfused with PBS (phosphate-buffered saline). […]
(§4) To determine whether the compound of Example 124 affects regulating the activities of Rotenone-induced reactive astrocyte and microglia, in the present invention, obtained images of brain tissues stained with GFAP (Astrocyte marker) and Iba-1(microglia marker) antibodies. Through acquired images analyzed the activation level of astrocytes and microglia respectively by measuring fluorescent intensity. […]
(§5) All the images were taken using a fluorescence microscope (Leica DM LB2). […] The signal intensity of GFAP and Iba-1 was measured in the chosen fields of the equal area using Image J.

[2] = system: Phosphorylated alpha-synuclein (s129); experiment: Double immunostaining for TH and p-α-synuclein, inclusions in cell bodies of TH+ neurons of rotenone mice; format: in vivo, C57BL/6 mice; details: rotenone 30 mg/kg orally, Example 124 40 mg/kg IP once a day for 35 days; FIG. 5(A-B)
Experimental: as §1, §2
Specifically, mice of Biological Experiment Example 1 were anesthetized with sevoflurane and perfused with PBS (phosphate-buffered saline). After perfusion, dissected the left hemisphere of the brain from the mice and fixed the right hemisphere brain with 4% PFA for 1 day [Shin, S. J., et al., Jowiseungchungtang Inhibits Amyloid-beta Aggregation and Amyloid-beta-Mediated Pathology in 5XFADMice. Int J Mol Sci, 2018. 19(12).]. The frozen brain was sectioned in the coronal way (30 μm thick) using a cryostat (Leica CM3000, Leica Microsystems, Nussloch, Germany). Sections were stored at deep freezer (−70° C.) until the immunohistochemistry analysis starts.
In all immunofluorescence labeling procedures, rinsed off the brain sections and blocked the tissues with cold PBST (0.1% Triton X-100 in PBS) containing 5% BSA and 5% goat serum at room temperature. […]

[3] = system: TH+ neurons (dopaminergic neurons); experiment: Immunohistochemistry with tyrosine hydroxylase (TH) antibody, counting of TH+ neurons in rotenone mice; format: in vivo, C57BL/6 mice; details: rotenone 30 mg/kg orally, Example 124 40 mg/kg IP once a day for 35 days, FIG. 3(A-B)
Experimental: as §1, §2
Dopaminergic neuron loss has been implicated in motor dysfunction in Parkinson's disease. In the present invention, stained the striatum with Tyrosine hydroxylase (TH) antibody to check out whether compound of Example 124 prevents the TH+ neuron cell death by rotenone.
as §3
All the images were taken using a fluorescence microscope (Leica DM LB2). To determine the loss of TH positive neurons and the prevention effect of the compound of Example 124 in the striatum, TH+ neurons were counted by using a cell counter plugin from ImageJ software (NIH).
Immunofluorescence images were analyzed using one-way ANOVA and post hoc analysis using Tukey's post hoc test (GraphPad Prism). […]

[4] = system: phosphorylated tau (p-Tau s262); experiment: Western blotting of phosphorylated tau (p-Tau s262) in rotenone mice; format: in vivo, C57BL/6 mice; details: Example 124-rotenone-treated group vs rotenone-vehicle group; not significantly; FIG. 4
Experimental: as §1, §2
(§6) Whole ventral midbrain was homogenized with RIPA buffer containing 1% Triton X 100, 0.5% deoxycholic acid, 0.2% SDS, 150 mM NaCl, 2 mM EDTA, protease inhibitors (PMSF, Aprotinin, NaF, Na3VO4). The homogenate was centrifuged at 13,000 rpm for 30 min on a rotator and the supernatant was used [Vergara, C., et al., Amyloid-beta pathology enhances pathological fibrillary tau seeding induced by Alzheimer PHF in vivo. Acta Neuropathol, 2019. 137(3): p. 397-412.]. Proteins were separated using SDS-PAGE with a concentration gradient of 8-20% SDS gels and transferred onto PVDF membranes (Immobilon P membrane, Millipore). Membranes blocked in 5% skim milk in TBST (Tris-Buffered saline-Tween®20) and immunolabeled with primary antibody, rabbit anti-tyrosine hydroxylase (TH) antibody (1:5000)). […]
(§7) Western blot data were analyzed using a t-test(1-tailed t-test). […]

[5] = system: Amyloid-beta precursor protein (APP); experiment: Western blot of APP in Alzheimer's disease in vitro model (SH-SY5Y cells transfected with pcDNA3-APPswe); format: cell-based, human; details: Example 124 100 uM, harvested 24 h after treatment, FIG. 7
Experimental: In the present invention, the amyloid-beta precursor protein (APP) reduction effect of the compound of Example 124 in an In Vitro model of Alzheimer's disease (AD) was confirmed.
SH-SY5Y, a human neuroblastoma cell line, was used, and when the pcDNA3-APPswe vector was transfected, these cells generate an AD-inducing APP.
SH-SY5Y cells were incubated in DMEM with 10% FBS and 1% penicillin/streptomycin. 500,000 cells/well was plated in a 6 well plate and transfected 24 h later.
Cells were transfected with pcDNA3-APPswe or pcDNA3 vectors using Lipofectamine 2000 (Invitrogen). After 4 h incubation, the transfection mixture (Lipofectamine+Vector) was replaced with 10% FBS in DMEM. compound of Example 124 (100 uM) or vehicle was treated in 20 h after transfection.
Cells were harvested 24 h after the compound of Example 124 treatments. Cells were washed twice with ice-cold PBS and lysed in RIPA buffer (1% Triton X-100, 0.5% deoxycholic acid, 0.2% SDS, 150 mM sodium chloride, 2 mM EDTA) with 1 mM PMSF, 2 ug/ml aprotinin, 10 ug/ml leupeptin, and 10 mM sodium fluoride.
The lysate was passed several times through a 26½-gauge syringe needle and centrifuged at 16,200*g for 20 min. The supernatant was quantified with the Bradford assay. 30 ug of protein samples, separated by SDS-PAGE, were transferred to the PVDF membrane. […]

[6] = system: Iba-1-positive microglia; experiment: Iba-1 immunohistochemistry, activation level of microglia in striatum of rotenone mice; format: in vivo, C57BL/6 mice
Experimental: as §1, §2, §3, §4, §5

[7] = system: Amyloid-beta (Aβ); experiment: Immunofluorescence of amyloid-beta in primary cultured cortical neurons; format: cell-based; details: primary cortical neurons treated with amyloid-beta and Example 124 (4 uM) together; FIG. 8
Experimental: Primary cortical neurons were harvested from the E12-14 embryo. Briefly, isolated cortices were incubated for 20 min at 37° C. in HBSS with 0.25% trypsin-EDTA, 0.1% DNase I. The cortices were dissociated by trituration in NBA media (Neurobasal medium with 2% B27, 2 mM 1-glutamine, and 1% penicillin/streptomycin). Cells were plated in poly-D-lysine coated 24-well plates at 50,000 cells/well. After 3 days of culture, Amyloid-beta and compound of Example 124 (4 uM) were treated.
Cortical neurons were fixed for 15 min at room temperature with 4% paraformaldehyde and 4% sucrose in PBS solution. Fixed neurons were incubated with blocking buffer (3% goat serum, 3% BSA in PBS-T (0.15% Triton-X100)) for 30 min at room temperature. After labeling with a primary antibody, cells were incubated with Alexa Fluor 488- or 568-conjugated secondary antibody. Aβ (6e10, Covance, 1:3000) and NeuN (abl77487, Abcam, 1:2000) were used as primary antibody.

[8] = system: rotenone-induced Parkinson's disease model mice; experiment: Pole test in rotenone-induced Parkinson's disease model mice; format: in vivo, C57BL/6 mice; details: rotenone 30 mg/kg orally, Example 124 40 mg/kg IP once a day for 35 days; vs rotenone group; not significantly; FIG. 1(B-C)
Experimental: (§8) C57BL/6 mice (n=61) were purchased from Samtako bio korea Co. Ltd (Osan, Korea.) Mice were housed in the room which offers 12 hours light/dark cycle with a temperature of 20˜22° C.
as §1, §2
(§9) In the present invention, in order to confirm whether the compound of Example 124 (compound 124) improves the motor abnormalities found in rotenone-induced Parkinson's disease model mice, rota-rod test, pole test, and foot printing assay test were performed.
Pole test was performed using the Parkinson's disease model mice of Biological Experiment Example 1 as follows. […] Each trial was recorded through the camera locating in front of the pole. The time mice turned upside down (head down) and the time it completely climbs down the pole was measured through a recorded video file manually by using the software Boris. Results from manually counted files were scored and presented.

[9] = system: rotenone-induced Parkinson's disease model mice; experiment: Foot printing assay (stride length) in rotenone-induced Parkinson's disease model mice; format: in vivo, C57BL/6 mice; details: rotenone 30 mg/kg orally, Example 124 40 mg/kg IP once a day for 35 days
Experimental: as §8, §1, §2, §9
Foot printing assay was performed using the Parkinson's disease model mice of Biological Experiment Example 1 as follows. Mice paws were dipped with non-toxic water paints (forelimbs in green and hind limbs in blue). Mice were placed in the corner of the enclosed maze with white paper lined through the maze and allowed to walk along the maze freely. […] Fore limb-stride length and hind limb-stride length were measured using ImageJ (NIH).

[10] = system: Amyloid-beta (Aβ); experiment: Anti-Aβ staining of brain tissue sections (choroid plexus cells) of treated mice; format: in vivo, C57BL/6 mice; details: orally administered for 6 weeks; vs vehicle (30% PEG400) mice; FIG. 9
Experimental: Amyloid-beta (Aβ) is a substance that is naturally produced and degraded In Vivo. Therefore, in the present invention, it was attempted to determine whether Amyloid-beta production was reduced in the compound of Example 124-treated mice.
C57BL/6 mice were purchased from Samtako bio Korea Co. Ltd (Osan, Korea.) Mice were housed in the room which offers a 12 hours light/dark cycle with a temperature of 20˜22° C. All experiments and animal care were approved by the Institutional Animal Care and Use Committee of Chonnam National University (Korea).
Mice were divided into a vehicle mice group and a drug-treated group, and then the vehicle (30% PEG400) or compound of Example 124 was orally administered for 6 weeks.
Mice were anesthetized with sevoflurane and perfused with PBS. After perfusion, the right hemisphere brain was fixed with 4% paraformaldehyde for one day. The frozen brains were sectioned at 30 um thickness. The tissue sections were blocked with 3% Goat serum and 3% BSA in cold PBS-T (0.15% Tx-100) for 30 min. Sections were then stained using anti-Aβ (ab5078p, millipore) 1:3000 in PBS. After 3 days of primary antibody labeling, sections were incubated with an Alexa Fluor 568 conjugated secondary antibody for 1 day. For each mouse, 8-10 tissue sections were quantified, and the Aβ intensity was measure at 15 choroid plexus cells. The measurement was done using Image J software.

[11] = system: Tyrosine hydroxylase (TH); experiment: Western blotting of tyrosine hydroxylase (TH) in ventral midbrain protein of rotenone mice; format: in vivo, C57BL/6 mice; details: rotenone 30 mg/kg orally, Example 124 40 mg/kg IP once a day for 35 days, FIG. 3(C-D)
Experimental: as §1, §2, §6, §7

[12] = system: Acetylated alpha-tubulin (Ace-α-tubulin); experiment: Western blotting of acetylated alpha-tubulin in rotenone mice; format: in vivo, C57BL/6 mice; details: Example 124-rotenone-treated group; differences between groups not significant; FIG. 4
Experimental: as §1, §2, §6, §7

CO[C@@H](c1ccccc1Cl)[C@H](C)OC(N)=O [Example 124, 1-(2-chlorophenyl)-(S)-1-methoxypropyl-(S)-2-carbamate]
activation of astrocytes by rotenone (GFAP intensity) [1]: attenuated
accumulation of α-synuclein in the soma (p-α-synuclein inclusions in TH+ neurons) [2]: dramatically decreased
rotenone-induced TH+ cell death (number of TH positive cells) [3]: significantly blocked
phosphorylation of tau protein (p-Tau s262) [4]: decreased
amount of APP protein (APP/B-actin) [5]: decreased
efficacy in microglia compared with astrocytes (relative Iba-1 and GFAP intensity) ([6]; FIG. 6(C-D)): more dramatic and obvious in microglia than in astrocytes
activation of microglia by rotenone (Iba-1 intensity) ([6]; rotenone 30 mg/kg orally, Example 124 40 mg/kg IP once a day for 35 days, FIG. 6): attenuated
amount of amyloid-beta [7]: decreased
pole test: time climbing down the pole / score [8]: slightly attenuated
stride length of forepaw ([9]; FIG. 2(A)): ameliorated
stride length of hind paw ([9]; FIG. 2(B)): ameliorated
amount of endogenous amyloid-beta (Aβ intensity) [10]: reduced
tyrosine hydroxylase (TH) expression (TH/B-actin) [11]: increased
α-tubulin acetylation levels [12]: increase
